The values below come from article PMC5103216, “Novel Agonist Bioisosteres and Common Structure-Activity Relationships for The Orphan G Protein-Coupled Receptor GPR139” (Scientific Reports, 2016).

For experiment [1], the target named is T1, GPR139 (Homo sapiens, UniProt Q6DWJ6).
T1 sequence (Q6DWJ6 1-353): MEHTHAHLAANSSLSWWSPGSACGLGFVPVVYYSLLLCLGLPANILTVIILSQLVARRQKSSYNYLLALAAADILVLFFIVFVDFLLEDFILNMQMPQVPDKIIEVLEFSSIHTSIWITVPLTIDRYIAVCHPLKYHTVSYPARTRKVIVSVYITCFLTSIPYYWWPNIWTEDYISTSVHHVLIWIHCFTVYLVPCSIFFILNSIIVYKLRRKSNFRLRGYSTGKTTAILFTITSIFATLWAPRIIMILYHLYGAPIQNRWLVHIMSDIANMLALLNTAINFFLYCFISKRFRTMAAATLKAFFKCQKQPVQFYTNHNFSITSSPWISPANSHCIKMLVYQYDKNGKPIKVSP
Set-up: method as in ref 11 (Shi et al.). As to conditions: ref 11 (Shi et al.), cited from earlier work; for EC50: GPR139 agonist potency.

Experiment [2] has as its target T1, GPR139. Set-up: method as in ref 13, 14 (Dvorak et al.). The conditions noted are these: 14 (Dvorak et al.), cited from earlier work; for Emax: relative to L-Trp; for EC50: mean of at least three experiments.
Experiment [3] concerns the target T1, GPR139. Briefly: Fluo-4 Ca2+-assay in CHO-k1 cells stably expressing GPR139 (CHO-GPR139). The experiment is classed as cell-based. The conditions noted are these: for Emax: CHO-K1, relative to 1a. Here is the method: Compound 1a[11] was kindly provided by H. Lundbeck A/S, Denmark. Compound 7c (Enamine no: Z31449867) was tested as a racemate, as the (S)-form described by Janssen et al. was not commercially available. All compounds were dissolved to 20 mM in DMSO (Sigma, D2650) and subsequently diluted in a HEPES buffer (HBSS (Invitrogen, 14025) supplemented with 20 mM HEPES + 1 mM MgCl2 + 1 mM CaCl2, pH = 7.4) to a final concentration 0.5% DMSO in the assay. The DMSO level was kept constant for all concentrations of all compounds. DMSO was confirmed not to have any activity by itself at this concentration. L-Tryptophan (T0254) and L-Phenylalanine (P2126) were obtained from Sigma-Aldrich and dissolved directly in buffer.
All compounds were tested on a CHO-k1 cell line stably expressing GPR139 (CHO-GPR139) kindly provided by H. Lundbeck A/S, Denmark, and also on a CHO-k1 cell line stably expressing the M1 receptor (CHO-M1) (The Missouri S&T cDNA Resource Center, #CEM100TN00) to check for specificity. The CHO-GPR139 was grown in Dulbecco’s modified eagle medium (DMEM) F12-Kaighn’s (Gibco, 21127) supplemented with 10% dialysed fetal bovine serum (Gibco, 26400, United States origin), 1% GlutaMAX^TM-I (100X) (Gibco, 35050), and 100 units/mL penicillin and 100 μg/mL streptomycin (Gibco, 15140) and 1.0 mg/mL geneticin (Invitrogen, 1181103). CHO-M1 was grown in Ham’s F12 (Gibco, 21765) supplemented with 10% fetal bovine serum (Gibco, 10270, South America origin) +100 units/mL penicillin and 100 μg/mL streptomycin (Invitrogen, 15140–122) and 0,25 mg/mL geneticin (Life Technologies, 11811–031). Compound 1a and carbamoylcholine chloride (Sigma-Aldrich, C4382) were used as positive controls in the two cell lines, respectively.
30.000 cells/well were plated in black 96-well plates with flat clear bottoms (Corning, Falcon, 353219) and incubated overnight. The Fluo-4 dye loading solution (Invitrogen, F36206) was prepared according to the manufacturer’s instructions by dissolving it in HEPES buffer supplemented with 2.5 mM probenecid. 50 μL dye loading solution was added to each well. Cells were incubated with the Fluo-4 dye for 60 min at 37 °C, then washed with 100 μL HEPES buffer. 100 μL HEPES buffer supplemented with 2.5 mM probenecid was then added to each well and incubated in 10 minutes at 37 °C before measurement. 33 μL of the test compounds (4x concentrated) were added automatically after baseline measurements. Intracellular calcium change was recorded on a NOVOstar instrument (BMG Labtech) at 37 °C with an excitation filter of 485 nm and an emission filters 520 nm. Data originate from three independent experiments in triplicates.

The mark [4] stands for this setting: CHO-GPR139, mean of at least three experiments.

The term EC50 denotes the concentration giving half of the maximal effect. The term Emax denotes the maximal effect, on the per cent scale that the assay sets.

Entries after “also recorded” stand apart in the source; their conditions may differ. Read-outs that look alike come from different tables or passages of the source. Some results are limits rather than exact numbers.

As to `O=C(NNC(=O)c1ccccc1)Nc1cccc2ccccc12` [1b], on GPR139 [1], the EC50 was 2400 nM and the Emax is listed as 85%.
On to `CCOc1ccccc1C(=O)NNC(=O)Nc1cccc2ccccc12` [1d], for which the Emax at GPR139 [1] was 53%.
On to `CCc1cc(CC)cc(C(=O)NNC(=O)Nc2cccc3ccccc23)c1` [1e], for which, at GPR139 [1], the Emax is 6%.
For `O=C(NNC(=O)c1ccc(F)cc1)Nc1cccc2ccccc12` [1g], on GPR139 [1], the 50% effective concentration (EC50) was 440 nM and the maximum response (Emax) is 96%.
As to `COc1cc(C(=O)NNC(=O)Nc2cccc3ccccc23)cc(OC)c1OC` [1h], at GPR139 [1], the EC50 is 63 nM and the Emax is recorded as 76%.
Take `O=C(NNC(=O)c1ccc(Oc2ccccc2)cc1)Nc1cccc2ccccc12` [1i]: on GPR139 [1], the EC50 was 2100 nM and the Emax is on record as 61%.
On to `COc1cc(OC)cc(C(=O)NNC(=O)Nc2ccc(Br)c3ccccc23)c1` [1j], for which, at GPR139 [1], the Emax is given as 73%.
`COc1cc(OC)cc(C(=O)NNC(=O)Nc2ccc(C#N)c3ccccc23)c1` [1k]: on GPR139 [1], the Emax is 20%.
As for `COc1cc(OC)cc(C(=O)NNC(=O)Nc2c(C)ccc3ccccc23)c1` [1l], at GPR139 [1], the EC50 is 86 nM and the Emax was 86%.
As to `COc1cc(OC)cc(C(=O)NNC(=O)Nc2ccc(Cl)c3ccccc23)c1` [1m], the Emax at GPR139 [1] is 64%.
As for `COc1cc(OC)cc(C(=O)NNC(=O)Nc2cccc3c(Br)cccc23)c1` [1n], on GPR139 [1], the Emax is recorded as 54%.
On to `COc1cc(OC)cc(C(=O)NNC(=O)Nc2cccc3ccc(OC)cc23)c1` [1o], for which the Emax at GPR139 [1] is reported as 50%.
For the molecule `COc1cc(CNNC(=O)Nc2cccc3ccccc23)cc(OC)c1` [1p], at GPR139 [1], the 50% effective concentration (EC50) was above 10000 nM.
In the case of `COc1cc(OC)cc(C(=O)CNC(=O)Nc2cccc3ccccc23)c1` [1q], on GPR139 [1], the EC50 was 3300 nM and the Emax is 100%.
For the molecule `COc1cc(OC)cc(C(=O)NCC(=O)Nc2cccc3ccccc23)c1` [1r], at GPR139 [1], the EC50 was 180 nM and the Emax is 98%.
With `COc1cc(OC)cc(C(=O)N(C)NC(=O)Cc2cccc3ccccc23)c1` [1t], on GPR139 [1], the EC50 is 2500 nM and the Emax is reported as 74%.
For `COc1cc(OC)cc(C(=O)NN(C)C(=O)Cc2cccc3ccccc23)c1` [1u], at GPR139 [1], the EC50 is 5100 nM and the Emax is listed as 84%.
Turning to `C[C@H](NC(=O)CNC(=O)c1ccccc1)c1ccccc1` [7a], the Emax on GPR139 [2] is recorded as 130%.
`C[C@H](NC(=O)CNC(=O)c1ccc(Cl)cc1)c1ccccc1` [7d]: on GPR139 [2], the Emax is listed as 117%.
Regarding `Cc1cccc(C(=O)NCC(=O)N[C@@H](C)c2ccccc2)c1` [7e], the maximal response (Emax) at GPR139 [2] was 137%.
Turning to `C[C@H](NC(=O)CNC(=O)c1cccc(C#N)c1)c1ccccc1` [7f], the Emax at GPR139 [2] is 129%.
Regarding `C[C@H](NC(=O)CNC(=O)c1cccc(F)c1)c1ccccc1` [7g], on GPR139 [2], the Emax is reported as 118%.
In the case of `COc1cccc(C(=O)NCC(=O)N[C@@H](C)c2ccccc2)c1` [7h], at GPR139 [2], the Emax was 146%.
For `C[C@H](NC(=O)CNC(=O)c1cccc(C(F)(F)F)c1)c1ccccc1` [7i], the Emax at GPR139 [2] was 134%.
With `C[C@H](NC(=O)CNC(=O)c1cccc(OC(F)(F)F)c1)c1ccccc1` [7j], the Emax on GPR139 [2] was 129%.
Turning to `C[C@H](NC(=O)CNC(=O)c1cccc(Cl)c1Cl)c1ccccc1` [7k], the Emax on GPR139 [2] was 113%.
As for `C[C@H](NC(=O)CNC(=O)c1ccc(Cl)c(Cl)c1)c1ccccc1` [7l], at GPR139 [2], the Emax was 106%.
Regarding `C[C@H](NC(=O)CNC(=O)c1cc(Cl)ccc1Cl)c1ccccc1` [7m], the Emax at GPR139 [2] is recorded as 139%.
For the molecule `C[C@H](NC(=O)CNC(=O)c1cc(Cl)cc(Cl)c1)c1ccccc1` [7n], on GPR139 [2], the Emax is 119%.
Consider `C[C@H](NC(=O)CNC(=O)c1cc(F)cc(Cl)c1)c1ccccc1` [7o], for which, on GPR139 [2], the Emax is listed as 124%.
For `C[C@H](NC(=O)CNC(=O)c1cc(Cl)cc(Br)c1)c1ccccc1` [7p], the Emax on GPR139 [2] is given as 113%.
`COc1cc(OC)cc(C(=O)NCC(=O)N[C@@H](C)c2ccccc2)c1` [7q]: the Emax on GPR139 [2] is 149%.
In the case of `CCN1C(C)=NC2C=C(C(=O)NNC(=O)c3c(-c4ccccc4)noc3C)C=CC21` (stereo not drawn) [DL83], the EC50 on GPR139 [3] (values in text) is above 10000 nM.
Turning to `CCn1c(C)nc2cc(C(=O)NNC(=O)Cc3coc4ccc5ccccc5c34)ccc21` [DL85], the EC50 on GPR139 [3] (setting [4]) and on GPR139 [3] (values in text) was 1020 nM in each case. On GPR139 [3], this molecule showed an Emax of 95%.
Turning to `COc1cc(OC)cc(C(=O)NNC(=O)c2cccc3ccccc23)c1` [DL96], the “GPR139 agonist activity (in words)” value on GPR139 [3] (CHO-GPR139) is “loss of activity; also recorded: Inactive”.
As to `CN(C(=O)CNC(=O)c1ccc2c(c1)OCO2)C1CCc2ccccc21` (stereo not drawn) [DL131], the response at GPR139 [3] (setting [4]) was half-maximal at 1090 nM (EC50). In addition, at GPR139 [3], the Emax stood at 101%.
In the same order, the values of `O=C(CN1CCCc2ccccc21)NNC(=O)c1ccc2[nH]cnc2c1` [DL144] are 1160 nM and 96%.
Consider `CCn1c(C)nc2cc(C(=O)NNC(=O)CC(C)c3ccccc3)ccc21` (stereo not drawn) [DL146], for which the EC50 on GPR139 [3] (setting [4]) was 4720 nM; on GPR139 [3] (values in Figure 5 and Supplementary Chart 1), 4710 nM. The molecule also showed an Emax on GPR139 [3] of 85%.
`C=C(C)c1cccc(C(C)(C)NC(=O)NNC(=O)c2ccc3c(c2)nc(C)n3CC)c1` [DL148] registered an EC50 at GPR139 [3] (setting [4]) of 1220 nM. The same molecule had an Emax on GPR139 [3] of 100%.
`COc1cc(OC)cc(C(=O)NCCC(=O)N2CCCc3ccccc32)c1` [DL154] displayed an EC50 on GPR139 [3] (setting [4]) of 1500 nM. For the same molecule, the Emax on GPR139 [3] was determined as 91%.
For the molecule `C[C@H](NC(=O)CNCc1cccc(Cl)c1)c1ccccc1` [compound 8], the EC50 on GPR139 [2] is above 10000 nM.
For the molecule `C[C@H](NCCNC(=O)c1cccc(Cl)c1)c1ccccc1` [compound 9], on GPR139 [2], the EC50 was above 10000 nM.
As for `COc1cccc(C(=O)N[C@@H](C)C(=O)N[C@@H](C)c2ccccc2)c1` [compound 10], on GPR139 [2], the Emax is given as 143%.
Consider `COc1cccc(C(=O)N[C@H](C)C(=O)N[C@@H](C)c2ccccc2)c1` [compound 11], for which the Emax at GPR139 [2] is on record as 88%.
Regarding `COc1cccc(C(=O)N[C@@H](CO)C(=O)N[C@@H](C)c2ccccc2)c1` [compound 12], the Emax at GPR139 [2] was 107%.
